{
  "source": "patent US10238670B2",
  "about": "“9-aminomethyl minocycline compounds and methods of use thereof in urinary tract infection (UTI) treatment” (Paratek Pharmaceuticals, Inc., priority 2016, dated 2019)",
  "key": {"[1]": {"assay": "14C-labeled Compound 1 single oral 300 mg dose, plasma and urine", "format": "in vivo, human", "details": "for AUC(0-inf): 300 mg", "method": "^14C-labeled Compound 1 was administered as a single oral 300 mg dose to healthy human subjects. […] The concentrations of Compound 1 in urine are shown in Table 2 and indicate that urine concentrations exceed the plasma concentrations throughout the dosing interval. The AUC0-24 in urine was 186.1 μg*hr/ml.\nWhile the driver of efficacy for Compound 1 in UTI is not completely known, and while not wishing to be bound by any particular theory, Applicant believes that maximizing time of urine concentration above pathogen MIC (ideally, throughout the dosing interval) is desirable. This belief is partly based on a clinical study that evaluated the disposition of a single 300 mg oral dose of ^14C-Compound 1. In this study, plasma concentrations were consistent with previous oral dosing studies (area under the concentration-time curve from 0 to infinity [AUC0-inf] 9.4 μg·h/mL), and it was determined that approximately 40% of the absorbed dose was eliminated in the urine. Urine concentrations of Compound 1 were not measured directly but estimated concentrations (based on portion of excreted radioactivity) exceeded plasma concentrations and averaged between 7.6 and 11.2 μg/mL over the 24 hours following dosing. These urine concentrations would exceed the MIC90 for ESBL-producing E. coli (4 μg/mL) by approximately 2-fold. It is also known from Applicant's clinical studies that exposure to Compound 1 based on plasma concentrations is approximately 50% higher at steady-state than after a single dose."}, "[2]": {"tested_on": "baseline pathogen", "assay": "Phase 1b study, per-pathogen microbiological response at PTE (urine culture)", "format": "in vivo, human", "method": "At screening and at all study visits (i.e., screening, daily while on treatment, and at EOT and PTE visits) a microbiologic evaluation of the infection under study was performed. A clean-catch midstream urine sample was collected and immediately sent to the local microbiology laboratory for microscopic examination and culture. Quantitative urine culture by appropriate methods was performed using a calibrated loop that would identify bacteria at a lower limit of 1×10^3 CFU/mL. In general, bacteria identified at 1×10^5 colony forming units (CFU)/mL or greater were considered a bacterial pathogen (probability of true pathogen was greater than probability of contamination). In addition, if the same bacteria was isolated in the blood and in the urine at any CFU count it was considered a pathogen. Culture results were to include identification of all pathogens to the level of genus and species. In vitro antimicrobial susceptibility testing of the isolates to antimicrobial drugs that may be used to treat UTIs was performed locally using a standard method chosen by the laboratory. The microbiological outcome was determined programmatically based on the local and Central Laboratory microbiological analyses. For an isolate to be considered a pathogen at screening, it must presented in the urine sample at ≥10^5 CFU/mL or the pathogen should be isolated from both the blood and urine at any CFU count. Microbiological outcome was defined as: • Eradication: […] The pathogens isolated at baseline were presented by genus and species by treatment group. The number and percentage of subjects with a by-subject and by-pathogen eradication, persistence and indeterminate microbiologic response were presented. A listing of all baseline and post-baseline isolates was provided."}, "[3]": {"tested_on": "E. coli (ATCC 25922)", "details": "Macone 2014; cited from earlier work"}, "[4]": {"tested_on": "E. coli (ATCC 25922)", "assay": "Broth microdilution MIC against planktonic E. coli", "format": "cell-based", "details": "Escherichia coli, ATCC25922, extrapolated from OD650 plot after 24 hours, read-out: minimum inhibitory concentration (MIC)", "method": "Antimicrobial activity of Compound 1 against E. coli (ATCC 25922) was determined using a standard broth microdilution method (CLSI in Methods for Dilution Antimicrobial Susceptibility Tests for Bacteria That Grow Aerobically, Approved Standard M7-A8, Clinical and Laboratory Standards Institute, Wayne, Pa. (USA), 2011, incorporated herein by reference) with slight modifications."}, "[5]": {"details": "Enterococcus faecalis, IV_PO300"}, "[6]": {"details": "Overall Gram Negative Pathogens, IV_PO300"}, "[7]": {"details": "Overall Gram Negative Pathogens, PO300"}, "[8]": {"details": "Overall Gram Negative Pathogens, PO450"}, "[9]": {"details": "Overall Gram Positive Pathogens, IV_PO300"}, "[10]": {"details": "Overall Gram Positive Pathogens, PO300"}, "[11]": {"details": "Overall Gram Positive Pathogens, PO450"}, "[12]": {"details": "Staphylococcus saprophyticus, PO450"}, "[13]": {"details": "Streptococcus agalactiae - (Group B), PO300"}},
  "data": [
    {"smiles": "CN(C)c1cc(CNCC(C)(C)C)c(O)c2c1C[C@H]1C[C@H]3[C@H](N(C)C)C(O)=C(C(N)=O)C(=O)[C@@]3(O)C(O)=C1C2=O", "note": "[Compound 1, 9-[(2,2-dimethyl-propylamino)-methyl]-minocycline]", "values": [
      {"measurement": "absorbed dose eliminated in the urine", "setting": "[1]; human, in vivo, po", "value": "approximately 40%"},
      {"measurement": "estimated concentrations in urine, average over 24 hours", "setting": "[1]; human, in vivo, po", "value": "7.6 and 11.2"},
      {"measurement": "urine concentration relative to 4 μg/mL (MIC90 for ESBL-producing E. coli)", "setting": "[1]; human, in vivo, po", "value": "approximately 2 fold"},
      {"measurement": "AUC(0-inf)", "setting": "[1]; human, in vivo, po, plasma AUC0-inf", "value": 9.4, "unit": "µg·h/mL"},
      {"measurement": "AUC(0-inf)", "setting": "[1]; human, in vivo, po, plasma AUCinf", "value": 9.42, "unit": "µg·h/mL"},
      {"measurement": "plasma Cmax", "setting": "[1]; single oral 300 mg dose, healthy subjects", "value": 0.563, "unit": "µg/mL"},
      {"measurement": "Eradication", "setting": "[2]; Aerococcus urinae, PO450", "value": "1 (100.0) n (%)"},
      {"measurement": "Indeterminate", "setting": "[2]; Aerococcus urinae, PO450", "value": "0 (0.0) n (%)"},
      {"measurement": "Persistence", "setting": "[2]; Aerococcus urinae, PO450", "value": "0 (0.0) n (%)"},
      {"measurement": "Eradication", "setting": "[2]; [5]", "value": "1 (100.0) n (%)"},
      {"measurement": "Indeterminate", "setting": "[2]; [5]", "value": "0 (0.0) n (%)"},
      {"measurement": "Persistence", "setting": "[2]; [5]", "value": "0 (0.0) n (%)"},
      {"measurement": "Eradication", "setting": "[2]; Escherichia coli, IV_PO300", "value": "3 (100.0) n (%)"},
      {"measurement": "Indeterminate", "setting": "[2]; Escherichia coli, IV_PO300", "value": "0 (0.0) n (%)"},
      {"measurement": "Persistence", "setting": "[2]; Escherichia coli, IV_PO300", "value": "0 (0.0) n (%)"},
      {"measurement": "Eradication", "setting": "[2]; Escherichia coli, PO300", "value": "2 (66.7) n (%)"},
      {"measurement": "Indeterminate", "setting": "[2]; Escherichia coli, PO300", "value": "0 (0.0) n (%)"},
      {"measurement": "Persistence", "setting": "[2]; Escherichia coli, PO300", "value": "1 (33.3) n (%)"},
      {"measurement": "Eradication", "setting": "[2]; Escherichia coli, PO450", "value": "2 (50.0) n (%)"},
      {"measurement": "Indeterminate", "setting": "[2]; Escherichia coli, PO450", "value": "0 (0.0) n (%)"},
      {"measurement": "Persistence", "setting": "[2]; Escherichia coli, PO450", "value": "2 (50.0) n (%)"},
      {"measurement": "Eradication", "setting": "[2]; Klebsiella pneumoniae, PO300", "value": "1 (100.0) n (%)"},
      {"measurement": "Indeterminate", "setting": "[2]; Klebsiella pneumoniae, PO300", "value": "0 (0.0) n (%)"},
      {"measurement": "Persistence", "setting": "[2]; Klebsiella pneumoniae, PO300", "value": "0 (0.0) n (%)"},
      {"measurement": "Eradication", "setting": "[2]; Klebsiella pneumoniae, PO450", "value": "1 (50.0) n (%)"},
      {"measurement": "Indeterminate", "setting": "[2]; Klebsiella pneumoniae, PO450", "value": "0 (0.0) n (%)"},
      {"measurement": "Persistence", "setting": "[2]; Klebsiella pneumoniae, PO450", "value": "1 (50.0) n (%)"},
      {"measurement": "Eradication", "setting": "[2]; [6]", "value": "6 (100.0) n (%)"},
      {"measurement": "Indeterminate", "setting": "[2]; [6]", "value": "0 (0.0) n (%)"},
      {"measurement": "Persistence", "setting": "[2]; [6]", "value": "0 (0.0) n (%)"},
      {"measurement": "Eradication", "setting": "[2]; [7]", "value": "4 (100.0) n (%)"},
      {"measurement": "Indeterminate", "setting": "[2]; [7]", "value": "0 (0.0) n (%)"},
      {"measurement": "Persistence", "setting": "[2]; [7]", "value": "1 (25.0) n (%)"},
      {"measurement": "Eradication", "setting": "[2]; [8]", "value": "3 (50.0) n (%)"},
      {"measurement": "Indeterminate", "setting": "[2]; [8]", "value": "0 (0.0) n (%)"},
      {"measurement": "Persistence", "setting": "[2]; [8]", "value": "3 (50.0) n (%)"},
      {"measurement": "Eradication", "setting": "[2]; [9]", "value": "1 (100.0) n (%)"},
      {"measurement": "Indeterminate", "setting": "[2]; [9]", "value": "0 (0.0) n (%)"},
      {"measurement": "Persistence", "setting": "[2]; [9]", "value": "0 (0.0) n (%)"},
      {"measurement": "Eradication", "setting": "[2]; [10]", "value": "1 (100.0) n (%)"},
      {"measurement": "Indeterminate", "setting": "[2]; [10]", "value": "0 (0.0) n (%)"},
      {"measurement": "Persistence", "setting": "[2]; [10]", "value": "0 (0.0) n (%)"},
      {"measurement": "Eradication", "setting": "[2]; [11]", "value": "2 (100.0) n (%)"},
      {"measurement": "Indeterminate", "setting": "[2]; [11]", "value": "0 (0.0) n (%)"},
      {"measurement": "Persistence", "setting": "[2]; [11]", "value": "0 (0.0) n (%)"},
      {"measurement": "Eradication", "setting": "[2]; Proteus mirabilis, IV_PO300", "value": "3 (100.0) n (%)"},
      {"measurement": "Indeterminate", "setting": "[2]; Proteus mirabilis, IV_PO300", "value": "0 (0.0) n (%)"},
      {"measurement": "Persistence", "setting": "[2]; Proteus mirabilis, IV_PO300", "value": "0 (0.0) n (%)"},
      {"measurement": "Eradication", "setting": "[2]; Proteus mirabilis, PO300", "value": "1 (100.0) n (%)"},
      {"measurement": "Indeterminate", "setting": "[2]; Proteus mirabilis, PO300", "value": "0 (0.0) n (%)"},
      {"measurement": "Persistence", "setting": "[2]; Proteus mirabilis, PO300", "value": "0 (0.0) n (%)"},
      {"measurement": "Eradication", "setting": "[2]; [12]", "value": "1 (100.0) n (%)"},
      {"measurement": "Indeterminate", "setting": "[2]; [12]", "value": "0 (0.0) n (%)"},
      {"measurement": "Persistence", "setting": "[2]; [12]", "value": "0 (0.0) n (%)"},
      {"measurement": "Eradication", "setting": "[2]; [13]", "value": "1 (100.0) n (%)"},
      {"measurement": "Indeterminate", "setting": "[2]; [13]", "value": "0 (0.0) n (%)"},
      {"measurement": "Persistence", "setting": "[2]; [13]", "value": "0 (0.0) n (%)"},
      {"measurement": "reported MIC against E. coli", "setting": "[3]", "value": "0.5 to 2", "unit": "mg/L"},
      {"measurement": "MIC", "setting": "[4]", "value": 1.13, "unit": "mg/L"}
    ]}
  ]
}
